Assays:
HER2 = system: HER2; design: method as in PMID 21789172, PMID 18408761, PMID 15728811, PMID 15737014, PMID 17085664; settings: preclinical; read-out: IC50 inhibiting HER2; cited from earlier work
[1] = Phase I dose escalation: safety, tolerability, DLT and MTD (CTC-AE 4.03); type: in vivo
Procedure: This was the first-in-human phase I dose-escalation study of AST1306 for patients with advanced solid tumors. AST1306 was orally administered without food for one day followed by two days off to evaluate single dose PK profiles. After that, it was continuously administered for 21 days and two days off to assess multiple dose PK profiles and safety. […] Three times daily in three dose levels (800 mg TID, 1000 mg TID and 1200 mg TID) were explored subsequently. Treatment was then repeated at the same dose level in 28-day cycles until unacceptable toxicities, disease progression or the patient’s withdrew from the study. PK extension study was performed to enroll additional patients up to at least eight patients per dose cohort in three dose levels (MTD, one or two doses level lower than the MTD) for further evaluation of PK profiles.
Safety and tolerability were evaluated and assessed by investigators throughout the study and up to 14 days after the final dose of AST1306 according to Common Terminology Criteria for Adverse Events (CTC-AE) version 4.03. Laboratory evaluations and electrocardiogram were conducted at screening; every week of first and second cycles; every two weeks of third cycle and every four weeks of subsequent cycles. AEs assessment, vital signs, physical examinations and echocardiography were performed.
A modified Fibonacci 3 plus 3 dose-escalation design was employed. Tolerability was evaluated according to the type and frequency of DLTs observed from single-day-dose administration until day 21 of the first cycle of continuous dosing. DLTs were defined as follows: grade ≥ 3 non-hematologic toxicity (except nausea, vomiting and diarrhea); grade ≥ 3 nausea, vomiting or diarrhea uncontrollable with standard supportive care; grade 4 neutropenia or febrile neutropenia; and grade 4 thrombocytopenia or bleeding requiring a platelet transfusion. If two or more patients experienced DLTs in three to six patients for each cohort, dose escalation was terminated and the dose level below was defined as the MTD.
Dose interruptions were permitted for no more than 14 days for patients experiencing DLTs in the first cycle or intolerable toxicities in the subsequent cycles, with treatment resumed at the next lower dose level upon adequate recovery (grade ≤ 1). More than two dose level reductions were not allowed.
Patients in the PK extension study and food-effect study were also included to evaluate safety further.

advanced solid tumors = assay: Antitumor activity by RECIST 1.0; type: in vivo, human
Procedure: Antitumor activity was assessed by tumor measurements according to RECIST 1.0 and performed at 8-week intervals. The primary efficacy endpoint was progression free survival (PFS), which was defined as the time from the first administration until disease progression or death. Overall survival (OS) and response rate were also assessed. Clinical benefit rate was measured and defined as the proportion of patients with complete response, partial response and stable disease (SD) ≥ 6 months.

SMILES: C=CC(=O)Nc1ccc2ncnc(Nc3ccc(OCc4cccc(F)c4)c(Cl)c3)c2c1 [AST1306]
- IC50 (HER2): 3 nM
- MTD ([1]; TID, continuous-dosing schedule, oral): 1000 mg
- Anorexia grade 3, treatment-related AE, patients ([1]; human, in vivo): 0
- Fatigue grade 3, treatment-related AE, % of patients ([1]; human, in vivo): 0%
- Fatigue grade 3, treatment-related AE, patients ([1]; human, in vivo): 0
- Hand-foot syndrome grade 3, treatment-related AE, % of patients ([1]; human, in vivo): 0%
- Hand-foot syndrome grade 3, treatment-related AE, patients ([1]; human, in vivo): 0
- Proteinuria grade 3, treatment-related AE, % of patients ([1]; human, in vivo): 0%
- Proteinuria grade 3, treatment-related AE, patients ([1]; human, in vivo): 0
- Vomiting grade 3, treatment-related AE, % of patients ([1]; human, in vivo): 0%
- Vomiting grade 3, treatment-related AE, patients ([1]; human, in vivo): 0
- discontinuation from treatment due to diarrhea, % of patients ([1]; human, in vivo): 7%
- discontinuation from treatment due to diarrhea, patients ([1]; human, in vivo): 5
- discontinuation from treatment due to hypokalemia, patients ([1]; human, in vivo): 1
- grade 3 drug-related abdominal pain, % of patients ([1]; human, in vivo): 1.4%
- grade 3 drug-related abdominal pain, patients ([1]; human, in vivo): 1
- grade 3 drug-related anemia, % of patients ([1]; human, in vivo): 1.4%
- grade 3 drug-related anemia, patients ([1]; human, in vivo): 1
- grade 3 drug-related diarrhea, % of patients ([1]; human, in vivo): 32.4%
- grade 3 drug-related diarrhea, patients ([1]; human, in vivo): 23
- grade 3 drug-related elevated ALT or AST, % of patients ([1]; human, in vivo): 4.2%
- grade 3 drug-related elevated ALT or AST, patients ([1]; human, in vivo): 3
- grade 3 drug-related hypokalemia, % of patients ([1]; human, in vivo): 1.4%
- grade 3 drug-related hypokalemia, patients ([1]; human, in vivo): 1
- grade 3 drug-related rash, % of patients ([1]; human, in vivo): 1.4%
- grade 3 drug-related rash, patients ([1]; human, in vivo): 1
- grade 3 study drug-related AEs, % of patients ([1]; human, in vivo): 39.4%
- grade 3 study drug-related AEs, patients ([1]; human, in vivo): 28
- grade 4 to 5 AEs ([1]; human, in vivo): no observed grade 4 to 5 AEs
- patients with serious AEs (SAE) ([1]; human, in vivo): 8
- treatment-related diarrhea, % of patients ([1]; human, in vivo): 85.9%
- treatment-related diarrhea, patients ([1]; human, in vivo): 61
- treatment-related fatigue, % of patients ([1]; human, in vivo): 19.7%
- treatment-related fatigue, patients ([1]; human, in vivo): 14
- treatment-related rash, % of patients ([1]; human, in vivo): 16.9%
- treatment-related rash, patients ([1]; human, in vivo): 12
- patients with DLT (grade 3 diarrhea) ([1]; human, in vivo, 21 days): 5
- recommended phase II dose (RP2D) ([1]; human, in vivo, po, 21 days): 1000 mg
- decline in LVEF ([1]; in vivo): no significant decline in LVEF
- patients with dose reductions (all due to diarrhea) ([1]; in vivo): Seven
- patients with study drug-related AEs ([1]; in vivo): Sixty-eight
- median OS (advanced solid tumors; 12 NSCLC patients): not yet been reached
- median PFS (advanced solid tumors; 12 NSCLC patients): 3.6 months
- median OS (advanced solid tumors; 17 breast cancer patients): 17.7 (95% CI, 16.1–19.3) months
- median PFS (advanced solid tumors; 17 breast cancer patients): 5.5 (95% CI, 3.2–7.9) months
- confirmed PR, % of patients (advanced solid tumors; 55 evaluable patients): 12.7%
- confirmed partial responses, patients (advanced solid tumors; 55 evaluable patients): 7
- stable disease ≥ 6 months, patients (advanced solid tumors; 55 evaluable patients): 7
- confirmed PR, patients (advanced solid tumors; NSCLC, 12 evaluable): 1
- confirmed PR, patients (advanced solid tumors; breast cancer, 17 evaluable, all responders HER2 positive): 5
- confirmed PR, patients (advanced solid tumors; gastric cancer): 1

From article PMC4007625, “A phase I study of AST1306, a novel irreversible EGFR and HER2 kinase inhibitor, in patients with advanced solid tumors” (Journal of Hematology & Oncology, 2014)
